Reference: ChEMBL document CHEMBL1201862, “PubChem BioAssay data set” (2004)
Calls of active or inactive are those of the source.

Experiments:
[1] = molecular target: T1, Carboxy-terminal domain RNA polymerase II polypeptide A small phosphatase 1 (Homo sapiens, UniProt Q9GZU7); experiment: CTDSP1 inhibitors, concentration-response, biochemical, absorbance readout, ultra-high-throughput screen actives (AID 540297); type: functional
T1 sequence (Q9GZU7 whole entry): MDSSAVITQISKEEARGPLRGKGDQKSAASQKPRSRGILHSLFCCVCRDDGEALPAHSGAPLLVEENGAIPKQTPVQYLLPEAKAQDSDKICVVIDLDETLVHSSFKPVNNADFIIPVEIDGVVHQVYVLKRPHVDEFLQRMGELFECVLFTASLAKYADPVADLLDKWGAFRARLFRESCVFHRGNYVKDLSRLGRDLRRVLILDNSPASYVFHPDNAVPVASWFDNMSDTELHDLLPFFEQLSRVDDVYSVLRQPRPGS

[2] = tested on: P388/ADR; experiment: cells; type: functional; settings: Mus musculus, P388/ADR
[3] = tested on: SN12K1; experiment: cells; type: functional; settings: Homo sapiens, SN12K1
[4] = tested on: P388; experiment: cells; type: functional; settings: Mus musculus, P388
[5] = HEK-293T viability loss after treatment – luminescence, T-cell screen hits, cytotoxicity control for TCR NF-kB inhibitor project, dose response (AID 489026); type: functional, cell-based;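 also: cells exposed to compound about 14 hours before the viability readout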
[6] = tested on: Streptococcus sp. 'group A'; experiment: Streptococcus pyogenes SK(-)GAS viability under kanamycin – luminescence, BacTiterGlo, confirmation, counter-screen for streptokinase expression inhibitor project, dose response (AID 1900); type: functional, organism-based
[7] = molecular target: T2, Streptokinase A (Streptococcus pyogenes serotype M1, UniProt P10520); experiment: viability-normalized secreted streptokinase activity reduction – plasminogen activation absorbance, OD405, dose response (AID 1914); type: functional, Streptococcus pyogenes M1 GAS;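 also: secreted streptokinase activity via plasminogen activation per viability signal from cell pellet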
T2 sequence (P10520 whole entry): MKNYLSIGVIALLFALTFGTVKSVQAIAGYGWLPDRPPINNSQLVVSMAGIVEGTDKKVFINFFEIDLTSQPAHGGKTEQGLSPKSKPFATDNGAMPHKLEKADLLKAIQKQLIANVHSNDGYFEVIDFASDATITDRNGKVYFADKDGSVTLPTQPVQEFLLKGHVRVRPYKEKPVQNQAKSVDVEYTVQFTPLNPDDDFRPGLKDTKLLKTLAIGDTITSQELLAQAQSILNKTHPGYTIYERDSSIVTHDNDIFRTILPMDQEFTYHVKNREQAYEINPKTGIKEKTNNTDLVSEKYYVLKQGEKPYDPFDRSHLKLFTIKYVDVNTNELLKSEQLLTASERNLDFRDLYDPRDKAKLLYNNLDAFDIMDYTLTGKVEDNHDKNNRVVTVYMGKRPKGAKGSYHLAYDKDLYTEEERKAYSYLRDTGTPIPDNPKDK

[8] = tested on: Streptococcus; experiment: GAS UMAA2166 growth inhibition – luminescence, BacTiterGlo, counter-screen for streptokinase expression inhibitor project, dose response (AID 1915); type: functional, organism-based;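 also: potency for reduction of bacterial viability or growth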
[9] = molecular target: Cytochrome P450 2C9 (Homo sapiens, UniProt P11712)
[10] = tested on: INS1; experiment: INS-1E survival protection against cytokine death – cell-based, luminescence, retest, dose response (AID 449756); type: functional; settings: Rattus norvegicus;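 also: cell death triggered by IL-1 beta plus TNF-alpha plus IFN-gamma mixture; protective hits raise ATP signal compared with cytokine alone wells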
[11] = reduction of Shn3 3'UTR-driven luciferase in osteoblasts – cell-based, Clone20 osteoblasts, firefly luciferase, cherry-picked, dose response (AID 624132); type: functional;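 also: firefly luciferase luminescence from reporter carrying the Shn3 3'UTR in osteoblasts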
[12] = loss of viability in HepG2 cells – cell-based, CellTiter-Glo, cherry-picked, cytotoxicity control for Shn3 inhibitor project, dose response (AID 624134); type: functional
[13] = non-specific 3'UTR reporter inhibition in Clone20-Shn3RL – cell-based, Renilla luciferase, cherry-picked, counter-screen for Shn3 inhibitor project, dose response (AID 624133); type: functional
[14] = Luminescence Cell-Based Dose Confirmation HTS to Identify Activators of 5'UTR Stem-Loop Driven Alpha-Synuclein mRNA Translation in H4 Neuroglioblastoma Cells. [Related pubchem assays: 1829 (Project Summary), 1814 (Primary HTS)]; type: functional
[15] = Luminescence Cell-Based Dose Response HTS to Identify Activators of Luciferase Translation or Activity in H4 […] Cells. [Related pubchem assays: 1829 (Project Summary), 1814 (Primary HTS)]; type: functional
[16] = tested on: H4; experiment: Luminescence Cell-Based Dose Response HTS to Identify Activators of 5'UTR Stem-Loop Driven Prion Protein mRNA Translation in H4 Neuroglioblastoma Cells. [Related pubchem assays: 1829 (Project Summary), 1814 (Primary HTS)]; type: functional; settings: Homo sapiens
[17] = molecular target: T3, Replicative DNA helicase DnaB (Mycobacterium tuberculosis, UniProt P9WMR3); experiment: DnaB intein splicing inhibitors, dose response, biochemical, cell-free fluorescence (AID 449749); type: functional
T3 sequence (P9WMR3 whole entry): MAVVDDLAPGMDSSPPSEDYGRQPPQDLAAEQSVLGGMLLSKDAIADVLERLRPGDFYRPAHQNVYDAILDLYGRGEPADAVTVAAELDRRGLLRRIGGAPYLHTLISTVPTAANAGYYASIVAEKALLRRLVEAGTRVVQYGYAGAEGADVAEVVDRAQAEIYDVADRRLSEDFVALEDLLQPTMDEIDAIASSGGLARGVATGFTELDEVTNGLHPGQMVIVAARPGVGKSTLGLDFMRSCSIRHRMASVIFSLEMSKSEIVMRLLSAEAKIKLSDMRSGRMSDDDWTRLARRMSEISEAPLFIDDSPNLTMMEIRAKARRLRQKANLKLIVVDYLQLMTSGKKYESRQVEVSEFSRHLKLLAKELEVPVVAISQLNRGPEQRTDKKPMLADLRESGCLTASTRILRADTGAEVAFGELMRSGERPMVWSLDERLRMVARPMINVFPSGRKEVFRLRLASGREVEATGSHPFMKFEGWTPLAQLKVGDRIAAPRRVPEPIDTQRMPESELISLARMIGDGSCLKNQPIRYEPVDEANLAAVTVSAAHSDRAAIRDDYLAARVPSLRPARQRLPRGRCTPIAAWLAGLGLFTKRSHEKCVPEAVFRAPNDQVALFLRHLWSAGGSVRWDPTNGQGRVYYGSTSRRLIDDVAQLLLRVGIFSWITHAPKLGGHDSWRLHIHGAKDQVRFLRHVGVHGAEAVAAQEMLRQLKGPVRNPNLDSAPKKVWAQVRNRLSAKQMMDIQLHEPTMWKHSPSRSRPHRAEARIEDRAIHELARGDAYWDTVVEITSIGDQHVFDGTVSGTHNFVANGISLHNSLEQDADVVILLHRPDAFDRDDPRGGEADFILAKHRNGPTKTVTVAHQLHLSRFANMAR

[18] = molecular target: T4, Protein RecA (Mycobacterium tuberculosis, UniProt P9WHJ3); experiment: Fluorescence Cell-Free Homogeneous Dose Retest to Identify Inhibitors of RecA-Intein Splicing Activity. [Related pubchem assays (depositor defined):AID2097, AID2223, AID489010, AID492950]; type: functional
T4 sequence (P9WHJ3 whole entry): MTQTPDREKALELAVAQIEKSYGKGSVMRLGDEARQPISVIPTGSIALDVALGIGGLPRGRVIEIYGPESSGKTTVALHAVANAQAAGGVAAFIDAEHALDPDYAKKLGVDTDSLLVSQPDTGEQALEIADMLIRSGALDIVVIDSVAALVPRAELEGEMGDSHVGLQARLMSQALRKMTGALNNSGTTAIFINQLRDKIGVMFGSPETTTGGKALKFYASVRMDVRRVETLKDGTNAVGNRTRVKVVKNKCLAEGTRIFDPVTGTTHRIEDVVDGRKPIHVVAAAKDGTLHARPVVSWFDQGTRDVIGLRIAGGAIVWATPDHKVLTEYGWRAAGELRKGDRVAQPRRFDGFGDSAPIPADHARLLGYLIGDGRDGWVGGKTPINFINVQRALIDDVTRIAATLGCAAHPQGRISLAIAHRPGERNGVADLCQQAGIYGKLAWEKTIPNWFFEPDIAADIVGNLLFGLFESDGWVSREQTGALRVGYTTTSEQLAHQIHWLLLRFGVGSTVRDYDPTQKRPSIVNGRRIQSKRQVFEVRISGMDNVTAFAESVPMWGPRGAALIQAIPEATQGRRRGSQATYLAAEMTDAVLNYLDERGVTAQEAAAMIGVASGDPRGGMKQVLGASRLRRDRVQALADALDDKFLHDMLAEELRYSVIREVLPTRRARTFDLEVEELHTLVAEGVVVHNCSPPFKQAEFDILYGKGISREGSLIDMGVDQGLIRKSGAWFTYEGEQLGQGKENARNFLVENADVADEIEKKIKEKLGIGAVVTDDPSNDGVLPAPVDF

Cytochrome P450 2C9, sequence (P11712 whole entry): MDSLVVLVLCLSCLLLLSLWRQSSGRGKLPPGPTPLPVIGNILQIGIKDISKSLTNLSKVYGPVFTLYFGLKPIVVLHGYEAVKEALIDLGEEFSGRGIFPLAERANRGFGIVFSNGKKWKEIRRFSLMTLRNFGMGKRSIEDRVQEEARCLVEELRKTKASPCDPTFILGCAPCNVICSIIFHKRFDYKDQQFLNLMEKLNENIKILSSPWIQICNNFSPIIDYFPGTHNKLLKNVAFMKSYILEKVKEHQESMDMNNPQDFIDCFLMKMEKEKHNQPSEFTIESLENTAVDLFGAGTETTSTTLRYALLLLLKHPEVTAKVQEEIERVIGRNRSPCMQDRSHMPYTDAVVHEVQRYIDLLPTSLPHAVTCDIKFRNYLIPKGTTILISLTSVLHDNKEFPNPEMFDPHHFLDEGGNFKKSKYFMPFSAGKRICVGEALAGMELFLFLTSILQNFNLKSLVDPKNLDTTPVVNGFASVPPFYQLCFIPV

## Cc1ccc(OCC(=O)NNC(=O)Cn2nnc(-c3ccccc3)n2)cc1
[1]
  IC50: 12.7 µM (active)

## CC[C@]1(O)C[C@H]2CN(CCc3c([nH]c4ccccc34)[C@@](C(=O)OC)(c3cc4c(cc3OC)N(C)[C@H]3[C@@](O)(C(=O)OC)[C@H](OC(C)=O)[C@]5(CC)C=CCN6CC[C@]43[C@@H]65)C2)C1
[2]
  GI50: 0.103 µM (active)
[3]
  GI50: 0.000348 µM (active)
[4]
  GI50: 0.000674 µM (active)

## O=C1N[C@@H]2C(=C[C@H](O)[C@@H](O)[C@H]2O)c2cc3c(c(O)c21)OCO3 [NARCICLASINE]
[2]
  GI50: 0.045 µM (active)
[3]
  GI50: 0.045 µM (active)
[4]
  GI50: 0.045 µM (active)

## O=C(O)c1ccc(-c2ccc(-c3ccccc3)cc2)s1
[5]
  IC50: > 80 µM (inactive)

## CC(C)NC(=O)OCc1c2c(n(C)c1COC(=O)NC(C)C)-c1ccccc1CC2
[2]
  GI50: 2 µM (inactive)
[3]
  GI50: 12 µM (inactive)
[4]
  GI50: 1.79 µM (inactive)

## S=C(NCCSCc1ccc(Cl)cc1Cl)Nc1ccccc1
[6]
  EC50: 11.5 µM (active)
[7]
  EC50: > 150 µM (not active)
[8]
  EC50: 17 µM (active)
[9]
  AC50: inconclusive

## O=S(=O)(c1cc(F)ccc1F)N1CCN(c2ncnc3ccccc23)CC1
[5]
  IC50: 65.1 µM (inactive)
[10]
  AC50: 2.26 µM (active)
[11]
  AC50: 1.85 µM (active)
[12]
  AC50: 33.6 µM (active)
[13]
  AC50: 4.86 µM (active)

## CCCCCCCCCOCC(COP(=O)([O-])OCC[N+](C)(C)C)OC (stereo not given)
[2]
  GI50: > 100 µM (inactive)
[3]
  GI50: > 100 µM (inactive)
[4]
  GI50: 99.1 µM (inactive)

## COc1cccc2cc(-c3cc(=O)oc4cc(C)c(O)cc34)oc12
[1]
  IC50: 9.12 µM (active)

## O=C1c2ccccc2-c2c1nc1c([n+]2[O-])CCCC1
[14]
  EC50: 0.262 µM (active)
[15]
  EC50: 4.63 µM (active)
[16]
  EC50: 6.95 µM (active)
[17]
  AC50: 21 µM (active)
[18]
  EC50: 20.1 µM (active)

## CC(/C=C/c1ccco1)=N\NC(=O)c1cc(Cl)ccc1O
[1]
  IC50: 10.7 µM (active)
